Patent US20260240799A1, “TREATMENT OF PRIMARY BILIARY CHOLANGITIS” (Genfit, priority 2023, published 2026)
Entries after “also recorded” stand apart in the source; their conditions may differ.

How the values were obtained:
patients with PBC [1] = test: safety and tolerability in PBC patients; format: in vivo, human
[2] = test system: serum alkaline phosphatase (ALP); test: serum ALP change in phase 3 study on PBC (ELATIVE); format: in vivo, human; details: elafibranor 80 mg treatment group; PBC (placebo 3.2%)
[3] = test system: participants with primary biliary cholangitis; test: PROMIS Fatigue SF 7a T-score in phase 3 trial NCT04526665 (ELATIVE); format: in vivo, human; design: key to PROMIS Fatigue T-score, observed mean / PROMIS Fatigue T-score, observed median: standardized T-score, mean 50, SD 10; higher = more fatigue; details: for Change from baseline in PROMIS Fatigue T-score, mean / Change from baseline in PROMIS Fatigue T-score, median / Change from baseline in PROMIS Fatigue T-score, LS means (MMRM) / Change from baseline in PROMIS Fatigue T-score, LS means difference with placebo (MMRM) / PROMIS Fatigue T-score, observed mean / PROMIS Fatigue T-score, observed median: 80 mg once daily
Source text: The patient's fatigue can be measured using the PROMIS Short Form—Fatigue 7a questionnaire (V1.0) to assess change from baseline in fatigue during treatment. The PROMIS Fatigue item banks assess a range of self-reported symptoms over the past seven days, from mild subjective feelings of tiredness to an overwhelming, debilitating, and sustained sense of exhaustion that likely decreases one's ability to execute daily activities and function normally in family or social roles. Fatigue is divided into the experience of fatigue (frequency, duration, and intensity) and the impact of fatigue on physical, mental, and social activities. PROMIS instruments are scored using item-level calibrations. The final score is represented by the T-score, a standardized score with a mean of 50 and a standard deviation (SD) of 10. A 1-point decrease of the PROMIS Fatigue T-score represents a meaningful change in fatigue. This improvement corresponds to changes in alertness and well-being that are easily noticeable. Likewise, a noticeable worsening corresponds to a 1-point increase of the PROMIS Fatigue T-score (Schattenberg et al.; “Evaluating Pruritus and Fatigue in Patients with Treatment-Refractory Primary Biliary Cholangitis” EASL 21-24 Jun. 2023).
Participants aged 18 to 75 years, who had been diagnosed with primary biliary cholangitis according to established criteria, were recruited at 82 sites in 14 countries. Inclusion criteria were an alkaline phosphatase level of ≥1.67 times the upper limit of the normal range (ULN), and a total bilirubin level of ≤2 times the ULN. Prior to screening, eligible participants had received 13 to 15 mg/kg ursodeoxycholic acid treatment per day for at least 12 months (stable dose for at least 3 months) or were intolerant to ursodeoxycholic acid (no treatment for at least 3 months).
In this double-blind, placebo-controlled, phase 3 trial, participants with an inadequate response or intolerance to ursodeoxycholic acid were randomized 2:1 to receive elafibranor 80 mg or placebo once daily. Participants receiving stable doses of ursodeoxycholic acid for at least three months prior to enrollment continued their treatment regimen throughout the trial. The overall double-blind treatment period consisted of two parts. In part one, all randomized patients received a minimum of 52 weeks of double-blind treatment. In part two, participants continued to receive double-blind treatment beyond Week 52 in a variable treatment period until all participants had completed their Week 52 assessment or until a maximum treatment duration of 104 weeks, whichever came first. The first database lock occurred after the last participant completed its Week 52 visit in the double-blind period. At the end of the double-blind period (lasting 52 to 104 weeks), participants could optionally enter an open-label extension where they would receive elafibranor 80 mg for up to five years.
From September 2020 through May 2023, 161 participants were randomly assigned to receive elafibranor 80 mg (108 participants) or placebo (53 participants); these participants made up the intent-to-treat (ITT) and safety populations. The pruritus intent-to-treat population included 66 participants with moderate-to-severe pruritus (44 receiving elafibranor, 22 receiving placebo).
The Patient Reported Outcome Measurement Information System (PROMIS®) is the product of a massive effort begun in 2004 and based on modern measurement theory, to address the need to develop precise, consensus measures of health outcome, including fatigue, suitable for use across chronic diseases in particular PBC. The PROMIS Fatigue Short Form 7a (PROMIS Fatigue SF 7a) is a seven-item questionnaire derived from the 95-item PROMIS Fatigue item bank. […]

patients with PBC [4] = details: cited from earlier work
[5] = Week 4, Pruritus ITT analysis set
[6] = Week 13, Pruritus ITT analysis set
[7] = Week 26, Pruritus ITT analysis set
[8] = Week 39, Pruritus ITT analysis set
[9] = Week 52, Pruritus ITT analysis set

SMILES: CSc1ccc(C(=O)C=Cc2cc(C)c(OC(C)(C)C(=O)O)c(C)c2)cc1 [Elafibranor, 2-(2,6-dimethyl-4-{3-[4-(methylsulfanyl)phenyl]-3-oxopropen-1-yl}phenoxy)-2-methylpropanoic acid]
- safety and tolerability (patients with PBC [1]): safe and well-tolerated
- mean relative change from baseline to endpoint in serum ALP [2]: −48.3%
- effect on fatigue (PROMIS Fatigue SF 7a) compared to placebo, in words ([3]; 80 mg daily, participants with PBC): significative reduction; also recorded: improvement in fatigue
- Change from baseline in PROMIS Fatigue T-score, mean ([3]; Week 4, ITT analysis set): −1.66
- Change from baseline in PROMIS Fatigue T-score, median ([3]; Week 4, ITT analysis set): −1.60
- Change from baseline in PROMIS Fatigue T-score, mean [3, 5]: −2.86
- Change from baseline in PROMIS Fatigue T-score, median [3, 5]: −2.70
- Change from baseline in PROMIS Fatigue T-score, LS means (MMRM) ([3]; Week 13, ITT analysis set): −2.16
- Change from baseline in PROMIS Fatigue T-score, LS means difference with placebo (MMRM) ([3]; Week 13, ITT analysis set): −2.11
- Change from baseline in PROMIS Fatigue T-score, mean ([3]; Week 13, ITT analysis set): −2.24
- Change from baseline in PROMIS Fatigue T-score, median ([3]; Week 13, ITT analysis set): −1.50
- PROMIS Fatigue T-score, observed mean ([3]; Week 13, ITT analysis set): 53.63
- PROMIS Fatigue T-score, observed median ([3]; Week 13, ITT analysis set): 52.95
- Change from baseline in PROMIS Fatigue T-score, LS means (MMRM) [3, 6]: −3.50
- Change from baseline in PROMIS Fatigue T-score, LS means difference with placebo (MMRM) [3, 6]: −3.15
- Change from baseline in PROMIS Fatigue T-score, mean [3, 6]: −3.54
- PROMIS Fatigue T-score, observed mean [3, 6]: 57.49
- PROMIS Fatigue T-score, observed median [3, 6]: 59.20
- Change from baseline in PROMIS Fatigue T-score, mean ([3]; Week 26, ITT analysis set): −2.23
- Change from baseline in PROMIS Fatigue T-score, median ([3]; Week 26, ITT analysis set): −1.55
- Change from baseline in PROMIS Fatigue T-score, mean [3, 7]: −3.50
- Change from baseline in PROMIS Fatigue T-score, median [3, 7]: −3.20
- Change from baseline in PROMIS Fatigue T-score, mean ([3]; Week 39, ITT analysis set): −2.41
- Change from baseline in PROMIS Fatigue T-score, median ([3]; Week 39, ITT analysis set): −1.45
- Change from baseline in PROMIS Fatigue T-score, mean [3, 8]: −4.54
- Change from baseline in PROMIS Fatigue T-score, median [3, 8]: −4.05
- Change from baseline in PROMIS Fatigue T-score, LS means (MMRM) ([3]; Week 52, ITT analysis set): −2.45
- Change from baseline in PROMIS Fatigue T-score, LS means difference with placebo (MMRM) ([3]; Week 52, ITT analysis set): −1.23
- Change from baseline in PROMIS Fatigue T-score, mean ([3]; Week 52, ITT analysis set): −2.75
- Change from baseline in PROMIS Fatigue T-score, median ([3]; Week 52, ITT analysis set): −2.80
- PROMIS Fatigue T-score, observed mean ([3]; Week 52, ITT analysis set): 53.70
- PROMIS Fatigue T-score, observed median ([3]; Week 52, ITT analysis set): 53.70
- Change from baseline in PROMIS Fatigue T-score, LS means (MMRM) [3, 9]: −4.53
- Change from baseline in PROMIS Fatigue T-score, LS means difference with placebo (MMRM) [3, 9]: −3.77
- Change from baseline in PROMIS Fatigue T-score, mean [3, 9]: −4.58
- Change from baseline in PROMIS Fatigue T-score, median [3, 9]: −4.20
- PROMIS Fatigue T-score, observed mean [3, 9]: 56.23
- PROMIS Fatigue T-score, observed median [3, 9]: 56.45

SMILES: CC[C@H]1[C@@H](O)[C@@H]2[C@H](CC[C@]3(C)[C@@H]([C@H](C)CCC(=O)O)CC[C@@H]23)[C@@]2(C)CC[C@@H](O)C[C@@H]12 [OCA, obeticholic acid]
- fatigue as side effect of treatment (patients with PBC [4]): one of the most common side effects
